Experimental data from PMC6753678, “Fueling Open Innovation for Malaria Transmission-Blocking Drugs: Hundreds of Molecules Targeting Early Parasite Mosquito Stages” (Frontiers in Microbiology, 2019).
pIC50: −log10 of the molar value. Read-outs that look alike come from different tables or passages of the source.

Experiments:
[1] = system: 3D7-strain P. falciparum asexual parasites; test: P. falciparum asexual growth inhibition assay (Pf GIA); assay type: cell-based, Plasmodium falciparum; settings: dose response confirmation; read-out: Pf asexual growth inhibition assays IC50
Summary of the method: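 LDH readout: absorbance at 650 nm after 10 min at room temperature with lactate/APAD/NBT/diaphorase mix on thawed plates. Cultures (0.25% parasitemia, 2% hematocrit) were treated 72 h at 37°C in low-oxygen gas. Inhibition was normalised to 50 μM chloroquine and DMSO; n=3 biological replicates.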

[2] = system: P. berghei ookinete development; settings: for % inhibition, Replicate A / % inhibition, Replicate B: primary screen at 1 μM
HepG2 cells = test: HepG2 cytotoxicity assay; settings: for pIC50: read-out: HepG2 cytotoxicity assay IC50, dose response confirmation; for Pb ODA (this manuscript) HepG2 cytoxicity: HepG2 cytotoxicity listed with the Pb ODA data set (this manuscript)
Summary of the method: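 Here viability after a 48 h compound incubation (37°C, humidified 5% CO2) is measured by fluorescence and expressed as percent inhibition, with doxorubicin at 50 μM and DMSO as the bounding controls.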

[3] = read-out: Pb ODA IC50, this manuscript
[4] = read-out: Pb Ookinete development assay IC50, dose response confirmation
[5] = HepG2 values of the three screens unified
[6] = unified HepG2 value across the three screens
[7] = read-out: Pb ODA (this manuscript) IC50, P. berghei ookinete development assay, this manuscript

| Structure (SMILES) | pIC50 [1] | Is compound selective in assay? Pb ODA active? ([2]; 1: YES, 0: NO) | % inhibition, Replicate A [2] [%] | % inhibition, Replicate B [2] [%] | pIC50 [2, 3] | pIC50 [2, 4] | HepG2 cytoxicity (Pb ODA, this manuscript) (HepG2 cells) [µM] | Unified cytotox (HepG2 cells; [5]) [µM] | pIC50 (HepG2 cells) | Unified cytotox (HepG2 cells; [6]) [µM] | Is compound selective in assay? Pb ODA active? [2] | pIC50 [2, 7] | Pb ODA (this manuscript) HepG2 cytoxicity (HepG2 cells) [µM] |
| --- | --- | --- | --- | --- | --- | --- | --- | --- | --- | --- | --- | --- | --- |
| CCN(CC)CCCNc1c2ccccc2nc2ccccc12.Cl [TCMDC-125517] | 7.30 | 1 (1: YES) | 20.29 | 90.60 | 5.79 | 5.79 | 18.20 | 18.20 | 4.74 | – | – | – | – |
| Cc1c2ccncc2c(C)c2c1[nH]c1ccccc12 [TCMDC-125546] | 5.92 | 0 (0: NO) | 41.57 | 50.63 | 5.28 | 5.28 | – | – | 4.82 | 15.14 | – | – | – |
| CCn1cc(C(=O)O)c(=O)c2cc(F)c(N3CCN(S(=O)(=O)c4ccc(N)cc4)CC3)cc21 [TCMDC-125809] | 5.77 | 1 (1: YES) | 58.34 | 60.71 | 6.01 | 6.01 | – | – | 4.00 | 100.00 | – | – | – |
| O=C(NC(=O)c1ccccc1O)c1ccccc1O [TCMDC-125868] | 5.69 | 1 (1: YES) | 63.28 | 34.36 | – | 6.34 | – | – | 4.00 | 100.00 | – | – | – |
| COc1ccc2nccc(NC(=O)C3CCC(NCc4cnc(SC)c([N+](=O)[O-])c4)CC3)c2n1.Cl (centres unmarked) [TCMDC-131238] | 6.17 | – | 77.59 | 35.00 | – | 5.62 | – | – | 4.84 | – | 0 (key: 1: YES; 0: NO) | 5.62 | 14.62 |
| Br.CCCc1cc(C)ccc1OCCCON1C(N)=NC(N)=NC1(C)C [TCMDC-131320] | > 9.70 | 0 (0: NO) | 73.15 | 59.20 | 5.29 | 5.29 | 0.0017 | 0.0017 | 8.77 | – | – | – | – |
| C=CCc1cc(OC)ccc1OCCCOc1c(C)nc(N)nc1N.Cl [TCMDC-131358] | > 9.70 | 0 (0: NO) | 71.96 | 22.95 | 5.63 | 5.63 | – | – | 6.59 | 0.26 | – | – | – |
| CCN(CC)c1ccccc1CNC(=O)c1cc(Cl)c(N)cc1OC [TCMDC-131416] | > 9.70 | 1 (1: YES) | 54.83 | 54.70 | 5.88 | 5.88 | – | – | 4.38 | 41.69 | – | – | – |
| CCOC(=O)c1c(-c2ccccc2)nc2c(sc3ccccc32)c1O [TCMDC-131540] | 5.41 | 1 (1: YES) | 101.19 | 85.53 | 5.88 | 5.88 | – | – | 4.00 | 100.00 | – | – | – |
| CC(ON1C(N)=NC(N)=NC1(C)C)c1ccccc1 (centres unmarked) [TCMDC-131596] | 7.85 | 0 (0: NO) | 78.80 | 47.07 | – | 5.28 | 0.0372 | 0.0372 | 7.43 | – | – | – | – |
| Br.Cc1ccc(OCCCON2C(=N)N=C(N)NC2(C)C)cc1C [TCMDC-131650] | > 9.70 | – | 43.37 | 66.90 | – | 5.30 | – | – | 9.00 | – | 0 (key: 1: YES; 0: NO) | 5.30 | 0.001 |
| Br.CC1(C)N=C(N)N=C(N)N1OCCc1cccc2ccccc12 [TCMDC-131663] | 7.62 | – | 57.64 | 56.80 | – | 5.57 | – | – | 9.00 | – | 0 (key: 1: YES; 0: NO) | 5.57 | 0.001 |
| Br.CC1(C)NC(N)=NC(=N)N1OCCSc1ccccc1 [TCMDC-131670] | > 9.70 | – | 44.97 | 56.76 | – | 5.54 | – | – | 9.00 | – | 0 (key: 1: YES; 0: NO) | 5.54 | 0.001 |
| Br.CC1(C)NC(N)=NC(=N)N1OCCCOc1cc(Cl)ccc1Cl [TCMDC-131679] | > 9.70 | – | 77.33 | 60.56 | – | 5.47 | – | – | 9.00 | – | 0 (key: 1: YES; 0: NO) | 5.47 | 0.001 |
| Br.CC(CON1C(N)=NC(N)=NC1(C)C)c1ccc(Cl)cc1Cl (centres unmarked) [TCMDC-131687] | 7.41 | 0 (0: NO) | 63.61 | 60.22 | 5.68 | 5.68 | 0.001 | 0.001 | 9.00 | – | – | – | – |
| CC1(C)N=C(N)N=C(N)N1OCCCc1ccccc1.Cl [TCMDC-131689] | > 9.70 | 0 (0: NO) | 42.43 | 56.50 | 5.60 | 5.59 | 0.001 | 0.001 | 9.00 | – | – | – | – |
| Br.COc1ccc(CCCON2C(=N)N=C(N)NC2(C)C)cc1 [TCMDC-131693] | > 9.70 | – | 23.91 | 55.92 | – | 5.23 | – | – | 9.00 | – | 0 (key: 1: YES; 0: NO) | 5.23 | 0.001 |
| Br.CC1(C)NC(N)=NC(=N)N1OCCSc1ccc(Cl)c(Cl)c1 [TCMDC-131704] | > 9.70 | – | 51.68 | 39.02 | – | 5.08 | – | – | 9.00 | – | 0 (key: 1: YES; 0: NO) | 5.08 | 0.001 |
| Br.CCC(ON1C(N)=NC(N)=NC1(C)C)c1ccc(Cl)cc1 (centres unmarked) [TCMDC-131709] | 8.81 | – | 60.03 | 57.14 | – | 5.49 | – | – | 8.29 | – | 0 (key: 1: YES; 0: NO) | 5.49 | 0.00513 |
| Br.CC(CCON1C(N)=NC(N)=NC1(C)C)c1ccc(Cl)cc1 (centres unmarked) [TCMDC-131721] | > 9.70 | – | 71.36 | 33.21 | – | 5.02 | – | – | 9.00 | – | 0 (key: 1: YES; 0: NO) | 5.02 | 0.001 |
| Br.COc1ccc(CC(C)CON2C(N)=NC(N)=NC2(C)C)cc1 (centres unmarked) [TCMDC-131722] | > 9.70 | – | 50.32 | 49.29 | – | 5.31 | – | – | 9.00 | – | 0 (key: 1: YES; 0: NO) | 5.31 | 0.001 |
| CC1(C)NC(N)=NC(=N)N1OCOc1ccc(Cl)cc1.Cl [TCMDC-131734] | > 9.70 | – | 89.86 | 40.05 | – | 5.58 | – | – | 7.12 | – | 0 (key: 1: YES; 0: NO) | 5.58 | 0.0759 |
| Br.CC1(C)NC(N)=NC(=N)N1OCCCOc1ccccc1Cl [TCMDC-131739] | > 9.70 | – | 73.15 | 48.60 | – | 5.50 | – | – | 9.00 | – | 0 (key: 1: YES; 0: NO) | 5.50 | 0.001 |
| CCOC(=O)NC1=NC(=N)N(OCCCOc2cc(Cl)c(Cl)cc2Cl)C(C)(C)N1 [TCMDC-131741] | > 9.70 | – | 60.63 | 47.57 | – | 5.29 | – | – | 9.00 | – | 0 (key: 1: YES; 0: NO) | 5.29 | 0.001 |
| Br.CC(C)(C)c1ccccc1OCCCON1C(=N)N=C(N)NC1(C)C [TCMDC-131751] | > 9.70 | – | 62.16 | 60.88 | – | 5.51 | – | – | 9.00 | – | 0 (key: 1: YES; 0: NO) | 5.51 | 0.001 |
